According to PubChem BioAssay (NCI):
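All cell lines were grown in 96-well plates and treated with compound for 48 hours. GI50: concentration for 50% inhibition of growth. At the TGI there is no net growth.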 Where a SMILES comes first, the peptide text is derived from it. [ ]: non-standard residue; d: D form. The star is where a group is joined. Bn2Val = CC(C)[C@@H](C(=O)*)N(Cc1ccccc1)Cc1ccccc1; NH(4-Cl-benzyl) = Clc1ccc(CN*)cc1; NMeV = CN[C@H](C(=O)O)C(C)C; dNMeA = CN[C@H](C)C(=O)O

Experiments:
Experiment in all cases: NCI-60 cell line screen, 48 h
[1] = test system: IGROV1 ovarian
[2] = test system: A498 renal
[3] = test system: DU-145 prostate
[4] = test system: K-562 leukemia
[5] = test system: NCI-H23 lung
[6] = test system: HCC-2998 colon
[7] = test system: NCI-H460 lung
[8] = test system: HOP-92 NSCLC
[9] = test system: HT29 colon
[10] = test system: SNB-75 CNS

| Compound | TGI [1] [µM] | TGI [2] [µM] | TGI [3] [µM] | TGI [4] [µM] | TGI [5] [µM] | TGI [6] [µM] | TGI [7] [µM] | TGI [8] [µM] | TGI [9] [µM] | TGI [10] [µM] | GI50 [1] [µM] | GI50 [2] [µM] | GI50 [3] [µM] | GI50 [4] [µM] | GI50 [5] [µM] | GI50 [7] [µM] | GI50 [10] [µM] | GI50 [8] [µM] | GI50 [9] [µM] |
| --- | --- | --- | --- | --- | --- | --- | --- | --- | --- | --- | --- | --- | --- | --- | --- | --- | --- | --- | --- |
| O=c1[nH]n(Cc2ccccc2)c2ccc([N+](=O)[O-])cc12 | > 100 | > 100 | > 100 | > 100 | > 100 | > 100 | > 100 | > 100 | > 100 | – | – | – | – | – | – | – | – | – | – |
| CC(C)(C)[Si](C)(C)OCc1cccc(OCCOc2cccc(CO[Si](C)(C)C(C)(C)C)c2[N+](=O)[O-])c1[N+](=O)[O-] | > 100 | > 100 | > 100 | – | > 100 | – | > 100 | > 100 | > 100 | > 100 | – | – | – | – | – | – | – | – | – |
| C#CCn1c(=O)c(C)cn(/C(=C\C(=O)OCC)C(=O)OCC)c1=O | 15.3 | 40.8 | 35 | > 100 | 27.3 | – | 8.06 | 5.17 | 4.03 | 36 | – | – | – | – | – | – | – | – | – |
| Cc1nnc2n1N=C(c1ccc(Cl)cc1Cl)/C(=C/c1ccc(-c3ccc([N+](=O)[O-])cc3Cl)o1)S2 | > 100 | 95.8 | 38.9 | 26.9 | 28.1 | – | > 100 | 72.5 | > 100 | > 100 | 27.5 | 31.7 | 18.7 | 13.6 | 12.5 | 26 | 73.2 | 21.5 | 49.9 |
| Cc1ccccc1N=C(N)Nc1ccccc1C | > 100 | > 100 | > 100 | > 100 | > 100 | 62.1 | > 100 | – | > 100 | > 100 | – | – | – | – | – | – | – | – | – |
| COc1ccc2cc(CNCCCCCCNCc3ccc4cc(OC)ccc4c3)ccc2c1 | 3.15 | 2.99 | 2.99 | – | 3.8 | 0.277 | 0.94 | – | 0.383 | 2.66 | – | – | – | – | – | – | – | – | – |
| CCOP(=O)(O)CN1CCNCCN(CP(=O)(O)OCC)CCNCC1 | > 100 | > 100 | > 100 | > 100 | – | – | > 100 | > 100 | > 100 | > 100 | – | – | – | – | – | – | – | – | – |
| C=CCOn1c(C=C)nc2ccc(C)cc21 | > 100 | 43.6 | – | 55.3 | 46 | 33 | 32.8 | > 100 | 30.2 | 43.4 | – | – | – | – | – | – | – | – | – |
| CN=C(/N=c1\ssc(=NC)n1C)N(C)C | > 100 | > 100 | – | > 100 | > 100 | > 100 | > 100 | > 100 | > 100 | > 100 | – | – | – | – | – | – | – | – | – |
| C=CCP(=O)(CC=C)C(Cl)Cl | > 100 | – | > 100 | > 100 | > 100 | > 100 | > 100 | > 100 | > 100 | > 100 | – | – | – | – | – | – | – | – | – |
| CC(C)(C)n1c(=O)[nH]c(=O)n1C(C)(C)C | > 100 | > 100 | – | > 100 | > 100 | > 100 | > 100 | > 100 | > 100 | > 100 | – | – | – | – | – | – | – | – | – |
| O=C(Cc1ccc(Cl)c(Cl)c1)NCC1(N2CCCCC2)CCCCC1 | > 100 | > 100 | > 100 | > 100 | > 100 | 39.1 | > 100 | > 100 | > 100 | – | – | – | – | – | – | – | – | – | – |
| CCN(CC)C(=S)SS(=O)(=O)c1cccc(N)c1 | – | > 100 | > 100 | > 100 | > 100 | > 100 | > 100 | > 100 | > 100 | – | – | – | – | – | – | – | – | – | – |
| CN(C)/N=N/c1nc2c(c(=O)n(C)c(=O)n2C)n1CC(O)CO (configuration not stated) | > 100 | – | > 100 | > 100 | > 100 | > 100 | > 100 | – | > 100 | > 100 | – | – | – | – | – | – | – | – | – |
| COc1ccc(OC)c(SC(CC(=O)c2ccccc2)c2ccccc2)c1 (configuration not stated) | 23.1 | – | 21.9 | > 100 | 33.3 | 31.6 | > 100 | > 100 | 35.8 | 33.6 | – | – | – | – | – | – | – | – | – |
| CC(C)[C@H](NC(=O)[C@H](C(C)C)N(Cc1ccccc1)Cc1ccccc1)C(=O)N(C)[C@H](C(=O)N1CCC[C@H]1C(=O)N(C)[C@H](C)C(=O)NCc1ccc(Cl)cc1)C(C)C (Bn2Val-V[NMeV]P[dNMeA]-{NH(4-Cl-benzyl)}) | 8.3 | – | > 100 | > 100 | 28.6 | – | > 100 | 17.9 | 3.54 | 29.6 | – | – | – | – | – | – | – | – | – |
| CN1C(=O)C(O)C[C@@H]1c1ccccc1 (some centres not stated) | > 100 | – | > 100 | – | > 100 | > 100 | – | > 100 | > 100 | > 100 | – | – | – | – | – | – | – | – | – |
| Cc1nc(N)c(N2CCN(CN)CC2)c(=O)[nH]1 | – | > 100 | > 100 | > 100 | > 100 | > 100 | > 100 | – | > 100 | > 100 | – | – | – | – | – | – | – | – | – |
| Nc1ccc(S(=O)(=O)Nc2nc3ccccc3nc2N2CCCCCC2)cc1 | > 100 | – | > 100 | 52 | 47.7 | 33.4 | 61.2 | 63.6 | > 100 | > 100 | – | – | – | – | – | – | – | – | – |
| NCc1cccc(O)c1O | – | > 100 | – | > 100 | – | – | > 100 | > 100 | > 100 | > 100 | – | – | – | – | – | – | – | – | – |
| C/C(=N\NC(=S)N(C)C)c1cccnn1 | > 40.3 | 10.7 | > 100 | > 100 | > 28.2 | > 100 | – | – | > 100 | > 100 | – | – | – | – | – | – | – | – | – |
| Cc1ccccc1-c1nc2c(C(=O)NCCN(C)C)cccc2[nH]1 | > 100 | > 100 | – | > 61.1 | > 100 | > 100 | > 100 | 85.1 | > 100 | > 100 | – | – | – | – | – | – | – | – | – |
| COc1ccc(-c2oc3cc(O)cc(O)c3c(=O)c2OC)cc1 | > 100 | 66.8 | > 100 | > 100 | – | 62.9 | 65.6 | 16.1 | 68.3 | – | – | – | – | – | – | – | – | – | – |
